Patent publication US20210115104A1, “AMYLIN ANALOGUES” (Zealand Pharma A/S, priority 2015, published 2021)
pEC50: −log10 of the molar value. *1 amine or outer side, *2 acyl side, *3 side chain or, on linkers, in order; H or OH if unused. Where a SMILES comes first, the peptide text is derived from it. Bridges are numbered along the chain shown (N, C = ends). [ ]: non-standard residue; d: D form. The star is where a group is joined. C20 diacid = O=C(O)CCCCCCCCCCCCCCCCCCC(=O)*; γGlu = O=C(O)[C@H](CCC(=O)[*:2])N[*:1]; Hyp = O=C(O)[C@@H]1C[C@@H](O)CN1; NMeI = CC[C@H](C)[C@H](NC)C(=O)O; Aad = N[C@@H](CCCC(=O)O)C(=O)O; Sar = CNCC(=O)O

Legend:
[1] = biological target: T1, human calcitonin receptor (hCTR2) (Homo sapiens, UniProt P30988); experiment: hCTR2 cAMP assay (AlphaScreen) in COS7 cells; assay type: cell-based; details: cAMP induction, COS7 cells expressing hCTR2; Table 1; read-out: hCTR2 EC50
T1 construct: expressed in transfected cells
T1 sequence (P30988 25-474): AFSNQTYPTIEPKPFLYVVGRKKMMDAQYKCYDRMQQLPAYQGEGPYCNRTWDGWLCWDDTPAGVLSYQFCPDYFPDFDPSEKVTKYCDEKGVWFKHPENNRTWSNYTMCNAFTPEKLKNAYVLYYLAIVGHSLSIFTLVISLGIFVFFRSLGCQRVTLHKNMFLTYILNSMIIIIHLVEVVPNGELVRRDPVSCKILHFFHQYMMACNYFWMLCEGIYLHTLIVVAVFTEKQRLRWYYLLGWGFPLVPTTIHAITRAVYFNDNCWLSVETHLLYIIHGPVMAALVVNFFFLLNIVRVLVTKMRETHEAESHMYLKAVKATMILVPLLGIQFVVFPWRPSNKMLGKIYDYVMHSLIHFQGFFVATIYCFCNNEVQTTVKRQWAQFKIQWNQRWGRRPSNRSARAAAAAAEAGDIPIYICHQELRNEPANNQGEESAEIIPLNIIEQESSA
Procedure, shortened: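 cAMP induction, read by AlphaScreen after lysis, gives EC50 values via 4PL curve fitting. Peptides were applied at rising concentrations for 15 min at 37 °C, with IBMX and 0.1% casein in HEPES-buffered Tyrode pH 7.4, to COS7 cells (no endogenous RAMPs) stably expressing human CTR2.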

[2] = Pharmacokinetic (PK) profiling in rats; assay type: in vivo, rat; design: CI/F (apparent clearance values): unit not given here; details: Sprague Dawley male rats, single sc 30 nmol/kg; for half-life: rat, plasma, read-out: Plasma terminal elimination half-life t1/2 (converted)
Protocol: Sprague Dawley male rats were given a single subcutaneous (sc) bolus of each peptide to be tested, as specified below. 30 nmol/kg doses of compound were administered. Blood samples were drawn from the tail vein prior to dosing and at 24, 48, 72, 96 and 168 hours after dosing. Blood samples were taken from two rats at each time point, and only 2 blood samples were drawn from each rat, i.e. […] were used for each compound. The rats were euthanized immediately after the last blood sampling by concussion and cervical dislocation.
The dosing vehicle used for each test peptide was a mannitol-containing histidine buffer (pH 7.0). Plasma samples were analyzed after precipitation with ethanol by liquid chromatography mass spectrometry (LC-MS/MS). Mean plasma concentrations were used for calculation of the pharmacokinetic parameters using the non-compartmental approach in Phoenix WinNonlin 6.3.
Plasma terminal elimination half-life (t1/2) was determined as ln(2)/λz, where λz is the magnitude of the slope of the log linear regression of the log concentration versus time profile during the terminal phase. Apparent clearance (CL/F) was determined as dose/AUCinf (sc), where AUCinf is the area under the plasma concentration vs. time curve extrapolated to infinity (AUCinf=AUClast+Clast/λz, where Clast is the last observed plasma concentration).

SMILES | pEC50 [1] | CI/F (apparent clearance values) [2] | half-life [2] [h]
CC[C@H](C)[C@@H](C(=O)N[C@@H](CC(C)C)C(=O)N[C@@H](CO)C(=O)N[C@@H](CO)C(=O)N[C@H](C(=O)N[C@@H](CCC(=O)O)C(=O)N[C@H](C(=O)NCC(=O)N[C@@H](CO)C(=O)N[C@@H](CC(N)=O)C(=O)N[C@H](C(=O)N1C[C@H](O)C[C@H]1C(N)=O)[C@@H](C)O)C(C)C)[C@@H](C)O)N(C)C(=O)[C@H](C)NC(=O)CN(C)C(=O)[C@H](Cc1ccccc1)NC(=O)[C@H](CO)NC(=O)[C@H](CO)NC(=O)[C@H](CCCNC(=N)N)NC(=O)[C@H](CCC(N)=O)NC(=O)[C@H](CC(C)C)NC(=O)[C@H](Cc1ccccc1)NC(=O)[C@H](CCCC(=O)O)NC(=O)[C@H](C)NC(=O)[C@H](CC(C)C)NC(=O)[C@H](CCCNC(=N)N)NC(=O)[C@H](CCC(=O)O)NC(=O)[C@@H](NC(=O)[C@H](C)NC(=O)[C@@H]1CSSC[C@H](NC(=O)[C@H](CCCNC(=N)N)NC(=O)CC[C@H](NC(=O)CCCCCCCCCCCCCCCCCCC(=O)O)C(=O)O)C(=O)NCC(=O)N[C@@H]([C@@H](C)O)C(=O)N[C@@H](C)C(=O)N[C@@H]([C@@H](C)O)C(=O)N1)[C@@H](C)O [Compound 55, [19CD]-isoGlu-R-C( )-GTAT-C( )-ATERLA-Aad-FLQRSSF-Gly(Me)-A-Ile(Me)-LSSTEVGSNT-Hyp-NH2] ({C20 diacid-γGlu}-RCGTATCATERLA[Aad]FLQRSSF[Sar]A[NMeI]LSSTEVGSNT[Hyp]-NH2; disulfide 2-7) | 9.96 | 0.0045 | 26.2
CC[C@H](C)[C@@H](C(=O)N[C@@H](CC(C)C)C(=O)N[C@@H](CO)C(=O)N[C@@H](CO)C(=O)N[C@H](C(=O)N[C@@H](CCC(=O)O)C(=O)N[C@H](C(=O)NCC(=O)N[C@@H](CO)C(=O)NCC(=O)N[C@H](C(=O)N1C[C@H](O)C[C@H]1C(N)=O)[C@@H](C)O)C(C)C)[C@@H](C)O)N(C)C(=O)[C@H](C)NC(=O)CN(C)C(=O)[C@H](Cc1ccccc1)NC(=O)[C@H](CO)NC(=O)[C@H](CO)NC(=O)[C@H](CCCNC(=N)N)NC(=O)[C@H](CCC(N)=O)NC(=O)[C@H](CC(C)C)NC(=O)[C@H](Cc1ccccc1)NC(=O)[C@H](Cc1c[nH]cn1)NC(=O)[C@H](C)NC(=O)[C@H](CC(C)C)NC(=O)[C@H](CCCNC(=N)N)NC(=O)[C@H](CCC(N)=O)NC(=O)[C@@H](NC(=O)[C@H](C)NC(=O)[C@@H]1CSSC[C@H](NC(=O)[C@H](CCCNC(=N)N)NC(=O)CC[C@H](NC(=O)CCCCCCCCCCCCCCCCCCC(=O)O)C(=O)O)C(=O)N[C@@H](CC(N)=O)C(=O)N[C@@H]([C@@H](C)O)C(=O)N[C@@H](C)C(=O)N[C@@H]([C@@H](C)O)C(=O)N1)[C@@H](C)O [Compound 71, [19CD]-isoGlu-R-C( )-NTAT-C( )-ATQRLAHFLQRSSF-Gly(Me)-A-Ile(Me)-LSSTEVGSGT-Hyp-NH2] ({C20 diacid-γGlu}-RCNTATCATQRLAHFLQRSSF[Sar]A[NMeI]LSSTEVGSGT[Hyp]-NH2; disulfide 2-7) | 9.96 | 0.0146 | –
CC[C@H](C)[C@@H](C(=O)N[C@@H](CC(C)C)C(=O)N[C@@H](CO)C(=O)N[C@@H](CO)C(=O)N[C@H](C(=O)N[C@@H](CCC(=O)O)C(=O)N[C@H](C(=O)NCC(=O)N[C@@H](CO)C(=O)N[C@@H](CO)C(=O)N[C@H](C(=O)N1CCC[C@H]1C(N)=O)[C@@H](C)O)C(C)C)[C@@H](C)O)N(C)C(=O)[C@H](C)NC(=O)CN(C)C(=O)[C@H](Cc1ccccc1)NC(=O)[C@H](CO)NC(=O)[C@H](CO)NC(=O)[C@H](CCCNC(=N)N)NC(=O)[C@H](CCC(N)=O)NC(=O)[C@H](CC(C)C)NC(=O)[C@H](Cc1ccccc1)NC(=O)[C@H](Cc1c[nH]cn1)NC(=O)[C@H](C)NC(=O)[C@H](CC(C)C)NC(=O)[C@H](CCCNC(=N)N)NC(=O)[C@H](CCC(=O)O)NC(=O)[C@@H](NC(=O)[C@H](C)NC(=O)[C@@H]1CSSC[C@H](NC(=O)[C@H](CCCNC(=N)N)NC(=O)CC[C@H](NC(=O)CCCCCCCCCCCCCCCCCCC(=O)O)C(=O)O)C(=O)NCC(=O)N[C@@H]([C@@H](C)O)C(=O)N[C@@H](C)C(=O)N[C@@H]([C@@H](C)O)C(=O)N1)[C@@H](C)O [Compound 34, [19CD]-isoGlu-R-C( )-GTAT-C( )-ATERLAHFLQRSSF-Gly(Me)-A-Ile(Me)-LSSTEVGSSTP-NH2] ({C20 diacid-γGlu}-RCGTATCATERLAHFLQRSSF[Sar]A[NMeI]LSSTEVGSSTP-NH2; disulfide 2-7) | 10.05 | 0.0148 | –

Compounds with a higher pEC50 [1], results first:

pEC50 [1] | CI/F (apparent clearance values) [2] | half-life [2] [h] | SMILES
10.10 | 0.0078 | 17.9 | CC[C@H](C)[C@@H](C(=O)N[C@@H](CC(C)C)C(=O)N[C@@H](CO)C(=O)N[C@@H](CO)C(=O)N[C@H](C(=O)N[C@@H](CCC(=O)O)C(=O)N[C@H](C(=O)NCC(=O)N[C@@H](CO)C(=O)N[C@@H](CC(N)=O)C(=O)N[C@H](C(=O)N1C[C@H](O)C[C@H]1C(N)=O)[C@@H](C)O)C(C)C)[C@@H](C)O)N(C)C(=O)[C@H](C)NC(=O)CN(C)C(=O)[C@H](Cc1ccccc1)NC(=O)[C@H](CO)NC(=O)[C@H](CO)NC(=O)[C@H](CCCNC(=N)N)NC(=O)[C@H](CCC(N)=O)NC(=O)[C@H](CC(C)C)NC(=O)[C@H](Cc1ccccc1)NC(=O)[C@H](Cc1c[nH]cn1)NC(=O)[C@H](C)NC(=O)[C@H](CC(C)C)NC(=O)[C@H](CCCNC(=N)N)NC(=O)[C@H](CCC(=O)O)NC(=O)[C@@H](NC(=O)[C@H](C)NC(=O)[C@@H]1CSSC[C@H](NC(=O)[C@H](CCCNC(=N)N)NC(=O)CC[C@H](NC(=O)CCCCCCCCCCCCCCCCCCC(=O)O)C(=O)O)C(=O)N[C@@H](CCC(N)=O)C(=O)N[C@@H]([C@@H](C)O)C(=O)N[C@@H](C)C(=O)N[C@@H]([C@@H](C)O)C(=O)N1)[C@@H](C)O [Compound 57, [19CD]-isoGlu-R-C( )-QTAT-C( )-ATERLAHFLQRSSF-Gly(Me)-A-Ile(Me)-LSSTEVGSNT-Hyp-NH2] ({C20 diacid-γGlu}-RCQTATCATERLAHFLQRSSF[Sar]A[NMeI]LSSTEVGSNT[Hyp]-NH2; disulfide 2-7)
10.22 | 0.00406 | 36.7 | CC[C@H](C)[C@@H](C(=O)N[C@@H](CC(C)C)C(=O)N[C@@H](CO)C(=O)N[C@@H](CO)C(=O)N[C@H](C(=O)N[C@@H](CCC(=O)O)C(=O)N[C@H](C(=O)NCC(=O)N[C@@H](CO)C(=O)N[C@@H](CC(N)=O)C(=O)N[C@H](C(=O)N1C[C@H](O)C[C@H]1C(N)=O)[C@@H](C)O)C(C)C)[C@@H](C)O)N(C)C(=O)[C@H](C)NC(=O)CN(C)C(=O)[C@H](Cc1ccccc1)NC(=O)[C@H](CO)NC(=O)[C@H](CO)NC(=O)[C@H](CCCNC(=N)N)NC(=O)[C@H](CCC(N)=O)NC(=O)[C@H](CC(C)C)NC(=O)[C@H](Cc1ccccc1)NC(=O)[C@H](CC(=O)O)NC(=O)[C@H](C)NC(=O)[C@H](CC(C)C)NC(=O)[C@H](CCCNC(=N)N)NC(=O)[C@H](CCC(N)=O)NC(=O)[C@@H](NC(=O)[C@H](C)NC(=O)[C@@H]1CSSC[C@H](NC(=O)[C@H](CCCNC(=N)N)NC(=O)CC[C@H](NC(=O)CCCCCCCCCCCCCCCCCCC(=O)O)C(=O)O)C(=O)N[C@@H](CC(N)=O)C(=O)N[C@@H]([C@@H](C)O)C(=O)N[C@@H](C)C(=O)N[C@@H]([C@@H](C)O)C(=O)N1)[C@@H](C)O [Compound 49, [19CD]-isoGlu-R-C( )-NTAT-C( )-ATQRLADFLQRSSF-Gly(Me)-A-Ile(Me)-LSSTEVGSNT-Hyp-NH2] ({C20 diacid-γGlu}-RCNTATCATQRLADFLQRSSF[Sar]A[NMeI]LSSTEVGSNT[Hyp]-NH2; disulfide 2-7)
